In US20140243324A1, “USE OF HEMATOPOIETIC GROWTH FACTOR MIMETICS” (LIGAND PHARMACEUTICALS INCORPORATED, priority 2010, published 2014):

Experiments:
EPO receptor = biological target: T1, EPO receptor (Homo sapiens, UniProt P19235); assay: Phosphorylation of the EPO receptor in UT7 cells; format: cell-based; details: 10 nM or 100 nM, 15 or 45 minutes, FIG. 5A
T1 construct: endogenous in cells; host or cells: UT7 cells
Experimental: (§1) UT7 cells were treated with 10 nM Compound 102, 100 nM Compound 102, or control (vehicle). Phosphorylation of the EPO receptor was measured after 15 minutes or 45 minutes of treatment with Compound 101 or control (vehicle) (FIG. 5A). Phosphorylation of PI3K was measured after 60 minutes of treatment with EPO, Compound 101, or control (vehicle) (FIG. 5B). Phosphorylation of GATA1 was measured after 60 minutes treatment with Compound 102, EPO or control (vehicle) (FIG. 5C).

Erythroid cells = assay: EPO-dependent cell viability assay; format: cell-based; details: for maximum efficacy relative to the efficacy of EPO (cell viability): erythroid cells, FIG. 3; for erythropoietic efficacy compared with EPO at typical serum concentrations: typical EPO in blood approx. 0.01 U/ml
Experimental: Erythroid cells were treated with various concentrations of recombinant human EPO, Compound 101, or Compound 102, and the viability of treated cells was measured. The maximum efficacies of Compounds 101 and 102 was approximately 40% of the efficacy of EPO, corresponding to EPO EC40 of approximately 0.02 U/ml (FIG. 3). The typical EPO concentration in blood is approximately 0.01 U/ml, with a range from about 0.006 U/ml to about 0.032 U/ml.

GATA1 [1] = assay: Phosphorylation of GATA1 in UT7 cells; format: cell-based, human; details: 60 minutes, FIG. 5C
Experimental: as §1

GATA1 [2] = assay: Electrophoretic mobility shift assay for GATA1 in UT7 cells; format: cell-based, human; details: 30 minute treatment
Experimental: Binding of GATA1 to DNA was measured in an electrophoretic mobility shift assay for GATA1 in UT7 cells after 30 minute treatments with 1 U/ml EPO, 30 nM Compound 102, or 100 nM Compound 101.

STAT5 [3] = assay: STAT5 DNA binding in UT7EPO cells; format: cell-based, human
Experimental: (§2) Using human cell lines, the action of Compound 103 was determined to be dependent on the EPO receptor and involves the selective activation of the PI3K/AKT-GATA1 signaling pathway.

[4] = test system: CD34+ human bone marrow hematopoietic cells (BM-HCs); assay: Percentage of CD235a (glycophorin A) positive cells in CD34+ BM-HCs; format: cell-based
BM-HCs [5] = assay: Lineage specificity in BM-HCs (CD41, CD15 markers); format: cell-based, human
Experimental: (§3) In addition, Compound 103 stimulated the formation of BFU-E colonies with partial efficacy (30%) when incubated with BM-HCs for 14 days. The effect of Compound 103 on BM-HCs was specific for the erythroid lineage.

BCL2L1 [6] = assay: BCL2L1 expression in Mo7e cells that lack EPO receptor; format: cell-based; details: GM-CSF- and TPO-responsive human leukemia Mo7e cells that lack EPO receptor
BCL2L1 [7] = assay: BCL2L1 expression in UT7EPO cells; format: cell-based, human
Experimental: as §2

ERK/MAPK = assay: Phosphorylation of ERK/MAPK in UT7EPO cells; format: cell-based, human
Experimental: as §2

GATA1 [8] = assay: Phosphorylation of GATA1 in UT7EPO cells; format: cell-based, human
Experimental: as §2

EPOR = biological target: T2, EPOR (Homo sapiens, UniProt P19235); assay: Phosphorylation of EPOR in UT7EPO cells; format: cell-based
T2 construct: In the human EPO-dependent cell line UT7EPO; endogenous in cells; host or cells: UT7EPO cells
Experimental: as §2

PI3K [9] = assay: Phosphorylation of PI3K in UT7EPO cells; format: cell-based, human
Experimental: as §2

[10] = test system: EPO responsive genes (hemoglobin α, EPO receptor, BCL2L1); assay: Expression of EPO responsive genes in CD34 positive BM-HCs; format: cell-based, human
GATA1 [11] = assay: Binding of GATA1 to DNA in UT7EPO cells; format: cell-based, human
Experimental: as §2

STAT5 [12] = assay: Phosphorylation of STAT5 in UT7EPO cells; format: cell-based, human
Experimental: as §2

Mo7e cells = assay: Apoptosis in Mo7e cells that lack EPO receptor; format: cell-based; details: GM-CSF- and TPO-responsive human leukemia Mo7e cells that lack EPO receptor
UT7EPO cells = assay: Apoptosis induced by EPO withdrawal / cell survival in UT7EPO cells; format: cell-based, human
Experimental: as §2

BM-HCs [13] = assay: BFU-E colony formation in BM-HCs, 14 days; format: cell-based, human; details: incubated with BM-HCs for 14 days
Experimental: as §3

[14] = test system: CD34+ human bone marrow cells (BM-HCs); assay: Relative differentiation of human bone marrow cells (CD235a expression); format: cell-based; details: 10 nm Compound 101; FIG. 4
Experimental: CD34+ human bone marrow cells (BM-HCs) were treated with various concentrations of recombinant human EPO, Compound 101, Compound 102, or control. The number of cells expressing the erythrocyte-specific marker, CD235a (glycophorin A), was measured. […] The level of expression of CD235a in cells treated with 10 nm Compound 101 was approximately 37% of the level of expression of CD235a in cells treated with 2.0 U/ml EPO.

PI3K [15] = assay: Phosphorylation of PI3K in UT7 cells; format: cell-based, human; details: 60 minutes, FIG. 5B
Experimental: as §1

UT7 cells = assay: Relative cell viability of UT7 cells transfected with EPO receptor- and GATA1-specific siRNAs; format: cell-based, human; details: 30 nM Compound 101, FIG. 7
Experimental: UT7 cells transfected with EPO receptor- and GATA1-specific siRNAs were treated with 1 U/ml EPO, 30 nM Compound 101, or control (vehicle). The relative cell viability of the cells was measured (FIG. 7).

[16] = test system: CD34+ human bone marrow cells; assay: BFU-E colony formation in human CD34+ bone marrow cells; format: cell-based; details: Compound 101 10 nM
Experimental: CD34+ human bone marrow cells were incubated with recombinant human EPO, Compound 101, or control. Compound 101 stimulated the formation of BFU-E colonies with partial efficacy (31%) when incubated with BM-HCs.

T1 sequence (P19235 25-508): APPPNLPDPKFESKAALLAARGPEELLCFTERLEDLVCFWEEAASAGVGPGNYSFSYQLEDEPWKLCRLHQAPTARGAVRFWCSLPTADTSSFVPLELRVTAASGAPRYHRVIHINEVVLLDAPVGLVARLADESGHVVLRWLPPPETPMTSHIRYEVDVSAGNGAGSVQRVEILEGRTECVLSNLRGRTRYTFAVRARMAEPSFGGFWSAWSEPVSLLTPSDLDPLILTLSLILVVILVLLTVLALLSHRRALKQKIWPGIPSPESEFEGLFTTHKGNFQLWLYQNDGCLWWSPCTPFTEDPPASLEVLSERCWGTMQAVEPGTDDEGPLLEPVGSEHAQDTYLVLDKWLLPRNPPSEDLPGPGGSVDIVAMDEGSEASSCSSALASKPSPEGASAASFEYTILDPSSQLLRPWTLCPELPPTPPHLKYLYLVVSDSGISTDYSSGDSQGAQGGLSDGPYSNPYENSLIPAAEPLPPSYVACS
T1 sequence (O60674 whole entry partner): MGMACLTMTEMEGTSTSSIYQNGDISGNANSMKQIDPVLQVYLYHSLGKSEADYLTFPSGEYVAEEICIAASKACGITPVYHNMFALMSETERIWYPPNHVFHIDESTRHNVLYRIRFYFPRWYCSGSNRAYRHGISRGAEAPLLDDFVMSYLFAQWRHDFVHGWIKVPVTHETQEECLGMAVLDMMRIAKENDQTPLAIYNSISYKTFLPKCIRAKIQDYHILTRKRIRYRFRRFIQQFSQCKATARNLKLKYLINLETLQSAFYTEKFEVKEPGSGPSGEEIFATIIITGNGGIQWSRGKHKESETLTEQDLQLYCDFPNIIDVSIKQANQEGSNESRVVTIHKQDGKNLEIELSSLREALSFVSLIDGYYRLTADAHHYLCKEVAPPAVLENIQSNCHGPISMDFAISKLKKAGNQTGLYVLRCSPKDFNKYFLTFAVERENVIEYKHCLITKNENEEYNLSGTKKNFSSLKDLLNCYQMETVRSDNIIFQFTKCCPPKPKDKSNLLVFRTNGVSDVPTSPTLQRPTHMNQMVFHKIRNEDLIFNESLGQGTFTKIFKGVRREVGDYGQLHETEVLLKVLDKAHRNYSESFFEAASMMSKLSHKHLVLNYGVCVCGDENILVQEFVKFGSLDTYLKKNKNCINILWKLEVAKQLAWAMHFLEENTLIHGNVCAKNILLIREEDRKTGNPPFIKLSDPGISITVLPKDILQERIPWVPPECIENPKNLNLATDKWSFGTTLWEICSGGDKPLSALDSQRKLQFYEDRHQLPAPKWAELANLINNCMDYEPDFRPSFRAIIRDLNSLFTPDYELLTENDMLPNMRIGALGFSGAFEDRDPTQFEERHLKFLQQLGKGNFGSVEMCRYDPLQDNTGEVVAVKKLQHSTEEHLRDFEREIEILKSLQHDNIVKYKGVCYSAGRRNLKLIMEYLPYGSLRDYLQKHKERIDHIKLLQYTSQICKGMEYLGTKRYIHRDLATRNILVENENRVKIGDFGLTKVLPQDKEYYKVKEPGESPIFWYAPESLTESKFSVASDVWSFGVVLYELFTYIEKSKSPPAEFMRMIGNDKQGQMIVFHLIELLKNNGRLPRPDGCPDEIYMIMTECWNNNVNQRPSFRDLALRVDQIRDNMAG
T2 sequence (P19235 25-508): as the sequence (P19235 25-508) above
T2 sequence (O60674 whole entry partner): as the sequence (O60674 whole entry partner) above

COc1cccc(C(=O)N/N=C/c2ccc(Oc3ccc(/C=N/NC(=O)c4cccc(OC)c4)cc3)cc2)c1 [Compound 102, (N′,N′″E,N′,N′″E)-N′,N′″-((oxybis(4,1-phenylene))bis(methanylylidene))bis(3-methoxybenzohydrazide)]
phosphorylation of the EPO receptor (EPO receptor): stimulated phosphorylation | maximum efficacy relative to the efficacy of EPO (cell viability) (Erythroid cells): approximately 40% | erythropoietic efficacy compared with EPO at typical serum concentrations (Erythroid cells): greater than would be predicted for EPO at typical serum concentrations | phosphorylation of GATA1 (GATA1 [1]): stimulated phosphorylation | binding of GATA1 to DNA (EMSA) (GATA1 [2]; 30 nM Compound 102): induce binding of GATA1 to DNA

CN(C)c1ccc(C(=O)N/N=C/c2cccc(/C=N/NC(=O)c3ccc(N(C)C)cc3)c2)cc1 [Compound 103, (N′,N′″E,N′,N′″E)-N′,N′″-(1,3-phenylenebis(methanylylidene))bis(4-(dimethylamino)benzohydrazide)]
induction of STAT5 DNA binding (STAT5 [3]): did not | erythropoietic effect in combination with EPO ([4]; BM-HCs): additive to the effect of EPO | EC50 ([4]; Homo sapiens, CD34+ BM-HCs, read-out: EC50, increase of percentage of cells positive for CD235a): 2 nM | Emax ([4]; Homo sapiens, CD34+ BM-HCs, read-out: efficacy relative to the maximal effect of EPO (3 U/ml), CD235a positive cells): 42% | efficacy compared with the normal serum EPO concentration, CD235a positive cells ([4]; normal serum EPO (−0.01 U/ml)): greater than the efficacy of the normal serum EPO concentration | percentage of BM-HCs positive for the granulocyte marker CD15 (BM-HCs [5]): did not increase | percentage of BM-HCs positive for the megakaryocyte marker CD41 (BM-HCs [5]): did not increase | stimulation of BCL2L1 expression (BCL2L1 [6]): did not | stimulation of the expression of BCL2L1, efficacy (BCL2L1 [7]): efficacy comparable to EPO | phosphorylation of ERK/MAPK (ERK/MAPK): did not stimulate phosphorylation | phosphorylation of GATA1 (GATA1 [8]): stimulated the phosphorylation | phosphorylation of EPOR (EPOR): stimulated the phosphorylation | phosphorylation of PI3K (PI3K [9]): stimulated the phosphorylation | expression of EPO responsive genes including hemoglobin α, EPO receptor and BCL2L1 [10]: stimulated the expression | binding of GATA1 to DNA (GATA1 [11]): induced the binding of GATA1 to DNA | phosphorylation of STAT5 (STAT5 [12]): did not stimulate phosphorylation | block of apoptosis (Mo7e cells): did not block apoptosis | EC50 (UT7EPO cells; Homo sapiens, UT-7/Epo, UT7EPO cells, read-out: EC50, block of apoptosis induced by EPO withdrawal): 10 nM | activity after transfection with EPO receptor- and GATA1-specific siRNAs (UT7EPO cells; UT7EPO cells): blocked the activity | effect on cell survival in presence of the PI3K inhibitor LY294002 (UT7EPO cells; UT7EPO cells incubated with LY294002): blocked the effect | formation of BFU-E colonies, partial efficacy (BM-HCs [13]): 30%

CN(C)c1ccc(C(=O)N/N=C/c2ccc(Oc3ccc(/C=N/NC(=O)c4ccc(N(C)C)cc4)cc3)cc2)cc1 [Compound 101, (N′,N′″E,N′,N′″E)-N′,N′″-((Oxybis(4,1-phenylene))bis(methanylylidene))bis(4-(dimethylamino)benzohydrazide)]
maximum efficacy relative to the efficacy of EPO (cell viability) (Erythroid cells): approximately 40% | erythropoietic efficacy compared with EPO at typical serum concentrations (Erythroid cells): greater than would be predicted for EPO at typical serum concentrations | level of expression of CD235a compared with cells treated with 0.01 U/ml EPO [14]: above the level of expression observed in cells treated with 0.01 U/ml EPO | level of expression of CD235a relative to cells treated with 2.0 U/ml EPO [14]: approximately 37% | phosphorylation of PI3K (PI3K [15]): stimulated phosphorylation | effect of EPO receptor- and GATA1-specific siRNAs on compound activity (relative cell viability) (UT7 cells): blocks activity | binding of GATA1 to DNA (EMSA) (GATA1 [2]; 100 nM Compound 101): induce binding of GATA1 to DNA | % BFU-E relative to 3 U/ml EPO [16]: 31% | BFU-Es/Dish [16]: 11
